Results published in article PMC8880315, “Understanding the Impact of Age-Related Changes in Pediatric GI Solubility by Multivariate Data Analysis” (Pharmaceutics, 2022).
Converted amounts (≈) assume the structure as drawn. Read-outs that look alike come from different tables or passages of the source. Values belong to the compound of their own block, whether it stands above or below them.

Key:
[1] = design: method as in PMID 26220249; conditions: cited from earlier work
[2] = cited from earlier work
physchem [3] = conditions: adult fed state simulated gastric fluid (FeSSGF), milk-based, 37 °C, pH 5, fassgf or other biorelevant, thermodynamic from solid
physchem [4] = conditions: 37 °C, thermodynamic from solid
[5] = adult fasted state simulated gastric fluid (FaSSGF), pH 1.6, fassgf or other biorelevant
[6] = adult fasted state simulated intestinal fluid (FaSSIF-V2), pH 6.5, fassif
[7] = adult fed state simulated intestinal fluid (FeSSIF-V2), pH 5.8, fessif
[8] = Table 1, reference per cell, none given for mebendazole
[9] = at least one of the newborn FeSSIF (Pnb-FeSSIF and Pnc-FeSSIF), previous solubility study

Structure (SMILES): NC(=O)N1c2ccccc2C=Cc2ccccc21 [carbamazepine]
solubility in pediatric gastric fluids in comparison to adult gastric fluids ([1]; fasted gastric fluids, previous study): statistical different (p ≤ 0.05) and outside the purported bioequivalence criterion

Structure (SMILES): COc1ccc2c(c1)c(CC(=O)O)c(C)n2C(=O)c1ccc(Cl)cc1 [indomethacin]
logP ([2]; no reference given): 4.3 | Sp/Sa (%) vs 80–[…] threshold ([1]; newborn gastric media (Pn-FaSSGF), previous study): outside the limits of the 80–125% threshold

solubility at 48 h (physchem [3]): 390 ± 6.35 µg/mL (≈ 1640 µM) | solubility differences between adults and pediatrics (all pediatric media tested): no significant solubility differences | solubility at 24 h (physchem [4]; [5]): 196 ± 11.7 µg/mL (≈ 823 µM) | solubility at 24 h (physchem [4]; [6]): 215.7 ± 1.96 µg/mL (≈ 906 µM) | solubility at 24 h (physchem [4]; [7]): 209 ± 3.22 µg/mL (≈ 879 µM)
Structure (SMILES): O=C1CN(/N=C/c2ccc([N+](=O)[O-])o2)C(=O)N1 [Nitrofurantoin]
Sp/Sa (%) vs 80–[…] risk assessment limits (all pediatric media tested): within the 80–125% risk assessment limits | pKa (acidic) ([2]; Table 1, reference per cell): 7.2 (acidic) [13]

solubility at 48 h (physchem [3]): 158 ± 7.22 µg/mL (≈ 314 µM) | solubility in pediatric vs adult medium (Pnc-FeSSGF (cow's milk formula) vs adult FeSSGF): significantly lower solubility | solubility in pediatric vs adult medium (Pns-FeSSGF (soy formula) vs adult FeSSGF): significantly higher solubility | solubility in pediatric vs adult medium (all pediatric fed intestinal media (Pnb-FeSSIF, Pnc-FeSSIF, Pi-FeSSIF) vs adult FeSSIF-V2): significant solubility differences | solubility at 24 h (physchem [4]; [5]): 11500 ± 570 µg/mL (≈ 22800 µM) | solubility at 24 h (physchem [4]; [6]): 11.9 ± 0.17 µg/mL (≈ 23.5 µM) | solubility at 24 h (physchem [4]; [7]): 81.4 ± 1.74 µg/mL (≈ 161 µM)
Structure (SMILES): OCCN(CCO)c1nc(N2CCCCC2)c2nc(N(CCO)CCO)nc(N3CCCCC3)c2n1 [Dipyridamole]
solubility in pediatric vs adult medium (pediatric fasted gastric fluids (Pn-FaSSGF and Pi-FaSSGF) vs adult FaSSGF, ANOVA p ≤ 0.05): higher solubility in both pediatric gastric fluids; however, these differences were not statistically significant | pKa (basic) [2, 8]: 5.7–6.4 (basic) [19, 20]

Structure (SMILES): O=C1NC(=O)C(c2ccccc2)(c2ccccc2)N1 [phenytoin]
Sp/Sa (%) ([1]; Pnc-FeSSIF, compound of the previous study): significant lower | Sp/Sa (%) [1, 9]: below 80 % of adult values

Structure (SMILES): COC1=CC(=O)C[C@@H](C)[C@]12Oc1c(Cl)c(OC)cc(OC)c1C2=O [griseofulvin]
Sp/Sa (%) [1, 9]: below 80 % of adult values

Structure (SMILES): Nc1ccc(O)c(C(=O)O)c1 [Mesalazine]
logP [2, 8]: 0.98 [8] | pKa (basic) [2, 8]: 5.69 | pKa (acidic) ([2]; Table 1, reference per cell): 2.3 | pKa (basic) ([2]; no reference given): 5.7

Structure (SMILES): Nc1ccc(S(=O)(=O)c2ccc(N)cc2)cc1 [dapsone]
logP ([2]; no reference given): 0.97

Structure (SMILES): COC(=O)Nc1nc2ccc(C(=O)c3ccccc3)cc2[nH]1 [Mebendazole]
logP [2, 8]: 2.80 | pKa (basic) [2, 8]: 3.5 (basic)

Structure (SMILES): CC(C)(O)c1ccccc1CC[C@@H](SCC1(CC(=O)O)CC1)c1cccc(/C=C/c2ccc3ccc(Cl)cc3n2)c1 [Montelukast]
pKa (basic) [2, 8]: 2.7 | pKa (acidic) ([2]; Table 1, reference per cell): 5.8
